The values below come from paper PMC12716005, “Design, Synthesis, and Molecular Docking of Triazole‐Coumarin Hybrids as Potent Breast Cancer Inhibitors Targeting Cell Cycle and Apoptosis” (Chemistry & Biodiversity, 2025).

The IC50 is the concentration at which inhibition is half-maximal.

The test system of experiment [1] is MCF‐10A human breast epithelial cells. Nature of the experiment: MTT cell viability assay, MCF-10A. It is filed as cell-based. As to conditions: 72 h, non-tumorigenic cells. The protocol:
(§1) Human cell lines, breast cancer MCF‐7 and MDA‐MB‐231, along with the human breast epithelial cell line (MCF‐10A), were purchased from ATCC (Rockville, USA). The necessary supplies, including fetal bovine serum (FBS), RPMI 1640 medium, 3‐(4,5‐dimethylthiazol‐2‐yl)‐2,5‐diphenyltetrazolium bromide (MTT), and DMSO, were provided by Merck (Darmstadt, Germany). The cells were maintained at 37°C in a CO2─enriched chamber, utilizing RPMI 1640 medium fortified with 10% FBS and 100 U/mL of penicillin/streptomycin [30].
(§2) Cell survival was evaluated using the MTT technique, which measures cellular redox activity. In metabolically active cells, MTT (3‐(4,5‐dimethylthiazol‐2‐yl)) is reduced to form an insoluble purple formazan. This formazan was solubilized, and its concentration was quantified by measuring optical density. MTT, sourced as a powder from Sigma, was made with phosphate‐buffered saline (PBS) in a 5 mM standard solution. The density at which cells were propagated was 10⁴ cells per well in 96‐well plates. Triazole‐coumarin hybrids were dissolved in DMSO, and varying concentrations (0.1–200 µM) of these derivatives were applied to the cells. Following treatment for 24, 48, and 72 h, 20 µL of the MTT mix was applied to each well, and the wells were then incubated for 4 h at thirty‐seven degrees in a CO2 incubator. After incubating, the formazan crystals were dissolved by adding 200 µL of DMSO after the MTT mixture was withdrawn. The absorption rate was recorded at 590 nm utilizing a Tecan spectrophotometer. Cisplatin served as the reference drug. […] To determine the selective toxicity of the triazole‐coumarin hybrids against breast cancer cells, the formula was used to compute the SI = IC50 for normal cells/IC50 for cancer cells.
On the technique in general: Tetrazolium assays rely on reduction of a dye to a coloured formazan, in cell work by metabolically active cells.

Experiment [2] relates to MCF‐7 breast cancer cells. Nature of the experiment: MTT cell viability assay, MCF-7. The experiment is classed as cell-based, human. As to conditions: for IC50: MTT, 72 h. The method, then:
as §1, §2

The subject of experiment [3] is MDA‐MB‐231 breast cancer cells. The experiment is described as follows: MTT cell viability assay, MDA-MB-231. The experiment is classed as cell-based, human. As to conditions: for IC50: MTT, 72 h. The protocol:
as §1, §2

Experiment [4] deals with MCF‐7 breast cancer cells. Nature of the experiment: DNA fragmentation (Cell Death Detection kit), MCF-7. As to conditions: 72 h, p < 0.05. It is filed as cell-based, human. The protocol: (§3) As an apoptotic signature, DNA fragmentation was evaluated using the Cell Death Detection kit (Sigma). In 96‐well plates, cancerous cells were cultivated at a density of 1×10⁵ cells per well, and compound 5f was applied at its IC50 concentration for 72 h. In brief, 20 µL of cell lysates were transferred to streptavidin‐coated wells preloaded with anti‐DNA antibodies and held at RT for 2 h. Three washes afterward with the provided washing buffer, 2,2‐azino‐di‐(3‐ethylbenzthiazoline sulfonate) diammonium salt was put into every well. Absorbance was determined at 405 nm employing a spectrophotometer.

Experiment [5] has as its system MCF‐7 breast cancer cells. Nature of the experiment: Cell cycle analysis by flow cytometry (PI), MCF-7. It is filed as cell-based, human. As to conditions: 72 h. The method, then:
(§4) In 24‐well plates, cells were introduced at a concentration of 5×10⁵ colonies per plate, and compound 5f was administered at its IC50 concentration for 72 h. The cell cycle phases were evaluated using the Cayman Cell Cycle Phase Determination Kit. Following treatment, applying cold PBS, cells were rinsed, trypsinized, and 5 min of centrifugation at 500 × g. The resulting pellets were resuspended in 250 µL of fixative and held at −20°C for 2 h. After a second centrifugation at 500 × g for 5 min, washing was carried out with PBS and stained with propidium iodide (PI) for 30 min at room temperature. Flow cytometric analysis of the cell cycle was implemented using a BD Accuri C6 flow cytometer, with detection wavelengths ranging from 488 to 650 nm.

Experiment [6] has as its system Bax mRNA. The experiment is described as follows: qRT-PCR Bax mRNA in MCF-7. As to conditions: MCF-7, IC50 value of 5f, 72 h. It is filed as cell-based, human. The protocol: (§5) To figure out the mRNA levels of apoptosis‐related proteins B‐cell lymphoma 2 (Bcl─2), Bcl─2‐associated X protein (Bax), cyclin‐dependent kinase 2 (CDK2), and Cyclin E, total mRNA was extracted from cells treated with compound 5f using Trizol reagent (Sigma). Complementary DNA (cDNA) synthesis was conducted from total mRNA using a Qiagen cDNA synthesis kit as described by the manufacturer. The primers listed below (350 nM concentration) were utilized: Bcl─2; forward ([…]); reverse ([…]), Bax; forward ([…]); reverse ([…]), CDK2; forward ([…]); reverse (TGGCTGAAATCCGCTTGTT), Cyclin E; forward ([…]); reverse ([…]), human GAPDH; forward ([…]); reverse (AGATGGTGATGGGCTTCCC). The PCR reaction mixture consisted of 1X buffer, 0.2 mM dNTPs, 1.6 mM MgCl2, 50 pmol of primer sets, cDNA, and 0.25 U of Taq polymerase. The thermal cycling conditions included an initial denaturation at 95°C for 60 s, followed by 50 cycles comprising 15 s of denaturation at 95°C, 15 s of annealing at 60°C, and 60 s of extension at 72°C. The median CT value of GAPDH, the naturally present housekeeping gene, was utilized to normalize the cycle threshold (CT) values. Levels of compared transcription were established using the comparative ^ΔΔCT method.

The test system of experiment [7] is MDA‐MB‐231 breast cancer cells. Nature of the experiment: DNA fragmentation (Cell Death Detection kit), MDA-MB-231. It is filed as cell-based, human. As to conditions: 72 h, p < 0.05. The method, then: as §3
Experiment [8] relates to Bcl─2 mRNA. The experiment is described as follows: qRT-PCR Bcl-2 mRNA in MDA-MB-231. As to conditions: MDA-MB-231, IC50 value of 5f, 72 h. The experiment is classed as cell-based, human. The method, then: as §5
In general terms: Quantitative PCR measures a nucleic acid by following its amplification.

The subject of experiment [9] is MDA‐MB‐231 breast cancer cells. Nature of the experiment: Cell cycle analysis by flow cytometry (PI), MDA-MB-231. As to conditions: 72 h. It is filed as cell-based, human. The method, then:
as §4
A general note: A flow cytometer gives signals particle by particle.

For experiment [10], the system named is Bcl─2 mRNA. Nature of the experiment: qRT-PCR Bcl-2 mRNA in MCF-7. It is filed as cell-based, human. As to conditions: MCF-7, IC50 value of 5f, 72 h. The method, then:
as §5

Experiment [11] deals with Bax mRNA. Nature of the experiment: qRT-PCR Bax mRNA in MDA-MB-231. As to conditions: MDA-MB-231, IC50 value of 5f, 72 h. The experiment is classed as cell-based, human. The method, then: as §5
The next experiment deals with MCF‐7. Details: method as in PMID 30556027. As to conditions: literature ref 28; cited from earlier work.
The mark [12] stands for this setting: SI = IC50 for normal cells (MCF-10A)/IC50 for cancer cells.

Consider `N.N.[Cl][Pt][Cl]` [Cisplatin, cisplatin, reference compound], for which the concentration for half-maximal inhibition (IC50) in experiment [1] worked out at 12.2 ± 0.8 µM; in experiment [2], 9.3 ± 1.2 µM; in experiment [3] it was 8.7 ± 0.6 µM.

Consider `Cc1n[nH]c(=O)n1NC(=O)c1cc2c(ccc3ccccc32)oc1=O` [Derivative 5a, N‐(3‐Methyl‐5‐oxo‐1,5‐dihydro‐4H‐1,2,4‐triazol‐4‐yl)‐3‐oxo‐3H‐benzo[f]chromene‐2‐carboxamide], for which the 50% inhibitory concentration (IC50) turned out to be 12.5 ± 1 µM in [1] (Homo sapiens, MCF-10A); 22.5 ± 1.8 µM in experiment [2] (Homo sapiens, MCF7, 72 h); 18.4 ± 1.16 µM in experiment [3] (Homo sapiens, MDA-MB-231, 72 h).

As to `Cc1ccc(Cc2n[nH]c(=O)n2NC(=O)c2cc3c(ccc4ccccc43)oc2=O)cc1` [Derivative 5e, N‐(3‐(4‐Methylbenzyl)‐5‐oxo‐1,5‐dihydro‐4H‐1,2,4‐triazol‐4‐yl)‐3‐oxo‐3H‐benzo[f]chromene‐2‐carboxamide], the IC50 was 40.6 ± 2.1 µM in experiment [1] (Homo sapiens, MCF-10A); 68.9 ± 3.1 µM in experiment [2] (Homo sapiens, MCF7, 72 h); 61.7 ± 0.4 µM in experiment [3] (Homo sapiens, MDA-MB-231, 72 h).

Consider `O=C(Nn1c(-c2ccccc2)n[nH]c1=O)c1cc2c(ccc3ccccc32)oc1=O` [Derivative 5c, 3‐Oxo‐N‐(5‐oxo‐3‐phenyl‐1,5‐dihydro‐4H‐1,2,4‐triazol‐4‐yl)‐3H‐benzo[f]chromene‐2‐carboxamide], for which the IC50 in experiment [1] (Homo sapiens, MCF-10A) worked out at 62.8 ± 0.4 µM; in experiment [2] (Homo sapiens, MCF7, 72 h), 25.9 ± 0.8 µM; in [3] (Homo sapiens, MDA-MB-231, 72 h) it was 64 ± 1.4 µM.

Regarding `O=C(Nn1c(Cc2ccccc2)n[nH]c1=O)c1cc2c(ccc3ccccc32)oc1=O` [Derivative 5d, N‐(3‐Benzyl‐5‐oxo‐1,5‐dihydro‐4H‐1,2,4‐triazol‐4‐yl)‐3‐oxo‐3H‐benzo[f]chromene‐2‐carboxamide], the IC50 in experiment [1] (Homo sapiens, MCF-10A) is 38.2 ± 0.7 µM; in experiment [2] (Homo sapiens, MCF7, 72 h), 49.8 ± 2.2 µM; in [3] (Homo sapiens, MDA-MB-231, 72 h), 87 ± 2 µM.

`O=C(Nn1c(Cc2ccc(Cl)cc2)n[nH]c1=O)c1cc2c(ccc3ccccc32)oc1=O` [Derivative 5f, N‐(3‐(4‐Chlorobenzyl)‐5‐oxo‐1,5‐dihydro‐4H‐1,2,4‐triazol‐4‐yl)‐3‐oxo‐3H‐benzo[f]chromene‐2‐carboxamide]: the DNA fragmentation induction in experiment [4] (MCF-7, 1 µM) worked out at 1.65 fold; in experiment [4] (MCF-7, 10 µM), 3 fold; in [4] (MCF-7, 50 µM) it was 4.1 fold; in [7] (MDA-MB-231, 1 µM) it was 1.7 fold; in experiment [7] (MDA-MB-231, 10 µM), 2.15 fold; in experiment [7] (MDA-MB-231, 50 µM) it was 4.15 fold. Besides, the “Cell cycle kinetics, M” value came to 22.9 in experiment [5] (MCF-7, IC50 value of 5f) and 20.0 in [9] (MDA-MB-231, IC50 value of 5f). For the same compound, the “Cell cycle kinetics, S” value amounted to 36.1 in [5] (MCF-7, IC50 value of 5f) and 36.6 in experiment [9] (MDA-MB-231, IC50 value of 5f). The “phase of cell cycle block” value in experiment [5] (MCF-7, IC50 value) is given as “S phase”; in experiment [9] (MDA-MB-231, IC50 value), “S phase”. Moreover, the “Bax mRNA level, upregulated” value with Bax mRNA [6] and with Bax mRNA [11] was 2.35 fold throughout. Further, the entries for the “Bcl─2 mRNA level, downregulated” value with Bcl─2 mRNA [8] and in the experiment on Bcl─2 mRNA [10] were 3.1 fold and 2.1 fold, respectively. Moreover, the “Cell cycle kinetics, G0/G1” value in experiment [9] (MDA-MB-231, IC50 value of 5f) was 0.8. For the same compound, the IC50 is 61.9 ± 0.6 µM in experiment [1] (Homo sapiens, MCF-10A); < 25 µM in [2] (Homo sapiens, MCF7, 72 h); 22.1 ± 0.42 µM in experiment [2]; < 25 µM in experiment [3] (Homo sapiens, MDA-MB-231, 72 h); 15.7 ± 0.2 µM in experiment [3]. For the same compound, the “selectivity index (SI) MCF‐7” value in experiment [2] (setting [12]) stood at 2.8. Further, the “selectivity index (SI) MDA‐MB‐231” value in experiment [3] (setting [12]) stood at 3.9.

Turning to `CCc1n[nH]c(=O)n1NC(=O)c1cc2c(ccc3ccccc32)oc1=O` [Derivative 5b, N‐(3‐Ethyl‐5‐oxo‐1,5‐dihydro‐4H‐1,2,4‐triazol‐4‐yl)‐3‐oxo‐3H‐benzo[f]chromene‐2‐carboxamide], in the experiment on MCF‐7, the “apoptotic effect in MCF‐7” value was “altered the mitochondrial membrane potential in MCF‐7, causing apoptotic cell death”. Besides, the half-inhibitory concentration (IC50) came to 25.2 ± 1.5 µM in [1] (Homo sapiens, MCF-10A); 76.6 ± 2.1 µM in experiment [2] (Homo sapiens, MCF7, 72 h); 95.8 ± 2.4 µM in [3] (Homo sapiens, MDA-MB-231, 72 h).
